Source: patent US20250228242A1 (priority 2021, published 2025)
Structures can show the parent of a compound that is named as a salt.

Experiments:
[1] = test system: Phytophthora infestans; assay: whole plant or invertebrate; format: in vivo; conditions: in Solanum tuberosum, 120 h, read-out: P. infestans % inhibition
[2] = test system: Albugo laibachii; assay: Albugo laibachii on A. thaliana, syringe infiltration of compound, visual scoring of disease severity; format: in vivo; conditions: in Arabidopsis thaliana, 100 μM in 1% DMSO syringe infiltrated into adult A. thaliana, visually scored at nine dpi, read-out: A. laibachii Inhibitory effect
Protocol: (§1) A. thaliana seeds were stratified on moist soil (Einheitserde type A240, Stender, Germany) for seven days at 4° C. in darkness, before transfer into growth chambers with short day conditions (10 h light, 14 h darkness, 23/20° C., 60% humidity). After three weeks, seedlings were singularised and grown for three weeks further. After six weeks, A. thaliana plants were used for experiments and after infection they were transferred into SANYO (Panasonic MLR-352, Japan) growth cabinets (10 h light, 14 h darkness, 22/16° C.). Potato plants were grown from tubers by covering them with soil (Einheitserde type A240, Stender, Germany). The leaves of adult plants (˜4-6 weeks old) were cut off and kept in a moist environment for infection assays.
(§2) For regular Albugo sp. infections A. thaliana Ws-0 was sprayed with an Albugo sp. conidiospores solution. These spore solutions were prepared by harvesting sporulating leaf material at 14 days post infection (dpi) and adding water for rehydration of the spores. Spore solutions were hold on ice for ˜1 h, before filtering through miracloth (Merck Millipore, Germany) to remove dirt. Spores were counted and the solutions diluted to 22.2×10^4 conidiospores/ml. Albugo sp. spore solutions were sprayed uniformly on A. thaliana leaves (4.5 ml per six plants) using an airbrush gun. During spraying, plants were placed in a plastic bag and afterwards transferred into a cold room to incubate at 4° C. in darkness (˜16 h). The next morning, plants were transferred into plant growth cabinets, but left in clear bags to keep humidity high, which supports Albugo sp. infections. ˜24 h later plants were unbagged and further incubated under normal plant growth conditions.
(§3) Afterwards, the plants were kept in the lab for ˜1 h to let the leaves equilibrate again. The infiltrated plants were infected with Albugo sp., following the above-mentioned protocol. At 7 dpi, infiltrated leaves were phenotypically scored and harvested. The samples were frozen in liquid nitrogen and stored at −80° C. until DNA extraction for growth quantification via qPCR. For experiment 4, A. candida spore solutions were prepared as before and mixed with 10 mM stock solution of the test compound (100 μM end conc.). The mixture of spore solution and test compound was sprayed and incubated as for experiment 2 and 3.
(§4) • Fungicidal activity against other oomycetes was tested using isolates of the obligate biotrophic pathogen genus Albugo on Arabidopsis thaliana. The test compounds, 100 μM in 1% DMSO, were syringe infiltrated into adult A. thaliana and subsequently sprayed with aqueous spore solutions of Albugo laibachii or A. candida. In primary screenings, disease severity was visually screened and scored at nine days post infection (dpi) (Table 2+3).

[3] = test system: Albugo candida; assay: Albugo candida growth on A. thaliana after syringe infiltration, quantified via qPCR; format: in vivo; conditions: for inhibition at 100 µM: Albugo candida, in Arabidopsis thaliana, qPCR at 7 dpi, A. thaliana; for inhibition of A. candida growth (in words): Table 4, qPCR at 7 dpi
[4] = test system: Albugo laibachii; assay: Albugo laibachii growth on A. thaliana after syringe infiltration, quantified via qPCR; format: in vivo; conditions: for inhibition at 100 µM: Albugo laibachii, in Arabidopsis thaliana, qPCR at 7 dpi, A. thaliana; for inhibition of A. laibachii growth (in words): Table 4, qPCR at 7 dpi, p 5 0.05
[5] = test system: P. infestans; assay: whole plant or invertebrate; format: in vivo; conditions: Phytophthora infestans, in Solanum tuberosum, read-out: P. infestans % inhibition
[6] = test system: Phakopsora pachyrhizi; assay: Soybean rust on soybean (Glycine max) leaves, syringe infiltration of compound, visual scoring; format: in vivo; conditions: 100 μM in 1% DMSO syringe infiltrated into adult G. max, visually scored at nine dpi, read-out: P. pachyrhizi Inhibitory effect
Protocol: Soybean plants were grown from pregerminated soybeans by putting them 1 cm deep into soil (Einheitserde type A240, Stender, Germany). Plants were grown in growth cabinets (16h light at 400 μM/m^2s and 22-24° C.-8h dark at 21-22° C.). 14 days after soil planting, plants were used for infection and experiments. Following inoculation with rust spores, plants were transferred back to growth cabinet prior to symptom screening.
Infiltration was always done through somata at the lower site of the leaf under light conditions to ensure stomata are open. Afterwards, the plants were kept in the growth cabinet for ˜1 h to let the leaves equilibrate again. The infiltrated plants were inoculated with Soybean rust spores using an airbrush and 0.01% Tween20 to ensure homogenous wetting. Plants were afterwards incubated for 24h in the dark at 24° C. and 100% humidity. At 9 dpi, infiltrated leaves were phenotypically scored.
• Fungicidal activity against Soybean rust was tested using a highly virulent stain of Phakopsora pachyrhizi and commercially available Soybeans.
The test compounds, […] 100 μM in 1% DMSO, were syringe infiltrated into adult G. max plants and subsequently sprayed with aqueous spore solutions and 0.01% Tween. In primary screenings, disease severity was visually screened and scored at nine days post infection (dpi) (Table 8).

[7] = test system: Albugo candida; assay: Albugo candida on A. thaliana, syringe infiltration of compound, visual scoring of disease severity; format: in vivo; conditions: in Arabidopsis thaliana, read-out: A. candida Inhibitory effect
Protocol: as §1, §2, §3, §4

[8] = test system: Pseudomonas syringae pv. tomato (Pto) DC3000; assay: Bacterial liquid culture growth curves (OD600), Pto DC3000; conditions: 18.5 h, read-out: Absolute growth rate relative to mock control, Pto DC3000
[9] = test system: Rhodococcus sp.; assay: Bacterial liquid culture growth curves (OD600), Rhodococcus sp.; conditions: 18.5 h, read-out: Absolute growth rate relative to mock control, Rhodococcus sp.

| SMILES | inhibition at 100 µM [1] | inhibition at 100 µM [2] | inhibition at 100 µM [3] | inhibition of A. candida growth (in words) [3] | inhibition at 100 µM [4] | inhibition of A. laibachii growth (in words) [4] | inhibition at 100 µM [5] | inhibition at 100 µM [6] | inhibition at 100 µM [7] | activity at 100 µM [8] | activity at 100 µM [9] |
| --- | --- | --- | --- | --- | --- | --- | --- | --- | --- | --- | --- |
| Oc1ccc(-c2cc(-c3ccc(O)c(O)c3)on2)cc1 [Compound 22, 5-(3,4-Dihydroxyphenyl)-3-(4-hydroxyphenyl)isoxazole] | 63% | > 70% | 53% | strong inhibition | 49% | significantly inhibited |  |  |  |  |  |
| O=C(c1ccc(-c2cc(-c3ccc(F)cc3)[nH]n2)cc1)N1CCOCC1 [Compound 143, {4-[5-(4-Fluorophenyl)-1H-pyrazol-3-yl]phenyl}(morpholin-4-yl)methanone] |  |  |  |  |  |  | 94% | 5 to 30% |  |  |  |
| COc1ccc(-c2cc(-c3ccc(OC)c(OC)c3)on2)cc1 [Compound 19, 5-(3,4-Dimethoxyphenyl)-3-(4-methoxyphenyl)isoxazole] | 26% |  | 70% | strong inhibition | 59% | significantly inhibited |  |  | > 70% | 95% | 58% |
| CCc1ccc(-c2cc(-c3cccc(NC(=O)[C@@H](N)CO)c3)[nH]n2)cc1 [Compound 129, (2S)-2-Amino-N-{3-[3-(4-ethylphenyl)-1H-pyrazol-5-yl]phenyl}-3-hydroxypropanamide hydrochloride] |  |  |  |  |  |  | 97% | > 70% |  |  |  |
| Oc1cccc(-c2cc(-c3ccc4c(c3)OCO4)n[nH]2)c1 [Compound 34, 3-(1,3-Benzodioxol-5-yl)-5-(3-hydroxyphenyl)-1H-pyrazole] |  | 30 to 70% |  |  |  |  |  |  |  | 56% | -1% |
| COc1cccc(-c2cc(-c3ccc4c(c3)OCO4)n[nH]2)c1 [Compound 9, 3-(1,3-Benzodioxol-5-yl)-5-(3-methoxyphenyl)-1H-pyrazole] |  | 30 to 70% |  |  |  |  |  |  |  | 100% | 8% |
| Brc1ccc(-c2cc(-c3ccc4c(c3)OCO4)n[nH]2)cc1 [Compound 38, 3-(1,3-Benzodioxol-5-yl)-5-(4-bromophenyl)-1H-pyrazole] |  | > 70% | 53% | strong inhibition | 50% | significantly inhibited |  |  |  |  |  |
| Oc1ccc(-c2c[nH]c(-c3ccc(O)c(O)c3)n2)cc1O [Compound 28, 2,4-Bis(3,4-dihydroxyphenyl)-1H-imidazole hydrobromide] | 30% | 30 to 70% | 49% |  | 4% |  |  |  |  | 49% | 71% |
